Measured values published in patent US20100197599A1, “USE OF A PEPTIDE AS A THERAPEUTIC AGENT” (priority 2007, published 2010).
No end group written: not given here.

Legend:
Human A549 cells = test: Apoptosis prevention assay (C2 ceramide, Annexin-5); type: cell-based; details: 10 micrograms per ml pretreatment 30 min
Interleukin-4 (IL-4) = test: Th1/Th2 cytokine profiling assay, IL-4; details: murine spleen cells, 10 micrograms per ml
Description: (§1) The Balb/c mice (originated in 1923, it is a popular strain and is used in many different research disciplines. Also classified as an inbred from the production of 20 or more successive brother-sister matings, the Balb/c mouse is albino and small in size) were immunized on Days 1, 15, and 29 with Ovalbumin (Ovalbumin is the main protein found in egg white, commonly used to stimulate an immunological reaction in test animals) in PBS (5 micrograms/injection). On day 50, spleens of the mice were harvested (3 weeks after last boost with Ovalbumin). […] Thereafter, additional Ovalbumin was added to the cells at 10 micrograms/ml for in vitro restimulation of the cells. 72 hours later, cell supernatants were harvested and assayed using the Becton Dickinson Mouse Th1/Th2 Cytokine CBA Kit. This kit can be used to measure Interleukin-2 (IL-2), Interleukin-4 (IL-4), Interleukin-5 (IL-5), Interferon-γ (IFN-γ), and Tumor Necrosis Factor-α (TNF-α) protein levels in a single sample. The kit performance has been optimized for analysis of physiologically relevant concentrations (μg/ml levels) of specific cytokine proteins in tissue culture supernatants and serum samples.

[1] = tested on: Primary Human endothelial cells (HUVEC); test: Endothelial cell migration assay; type: cell-based; details: 10 micrograms per ml, 22 hours
Description: Thereafter, designated concentration of testing peptides—10 micrograms per ml—was added in duplicate wells.

Interleukin-5 (IL-5) = test: Th1/Th2 cytokine profiling assay, IL-5; details: murine spleen cells, 10 micrograms per ml
Description: as §1

Interleukin-2 (IL-2) = test: Th1/Th2 cytokine profiling assay, IL-2; details: murine spleen cells, 10 micrograms per ml
Description: as §1

HUVEC = test: Endothelial tube formation assay; type: cell-based, human; details: 10 micrograms per ml, 20 hours
Description: Positive control was vehicle only.

Interferon-γ (IFN-γ) = test: Th1/Th2 cytokine profiling assay, IFN-γ; details: murine spleen cells, 10 micrograms per ml; for induction of the production of IFN-γ: Ovalbumin restimulation, 72 hours
Description: (§2) The Balb/c mice (originated in 1923, it is a popular strain and is used in many different research disciplines. Also classified as an inbred from the production of 20 or more successive brother-sister matings, the Balb/c mouse is albino and small in size) were immunized on Days 1, 15, and 29 with Ovalbumin (Ovalbumin is the main protein found in egg white, commonly used to stimulate an immunological reaction in test animals) in PBS (5 micrograms/injection). On day 50, spleens of the mice were harvested (3 weeks after last boost with Ovalbumin). […] Thereafter, additional Ovalbumin was added to the cells at 10 micrograms/ml for in vitro restimulation of the cells. 72 hours later, cell supernatants were harvested and assayed using the Becton Dickinson Mouse Th1/Th2 Cytokine CBA Kit. This kit can be used to measure Interleukin-2 (IL-2), Interleukin-4 (IL-4), Interleukin-5 (IL-5), Interferon-γ (IFN-γ), and Tumor Necrosis Factor-α (TNF-α) protein levels in a single sample.

[2] = tested on: Tumor Necrosis Factor-α (TNF-α); test: Th1/Th2 cytokine profiling assay, TNF-α; details: murine spleen cells, 10 micrograms per ml; for change of the production of TNF-alpha: Ovalbumin restimulation, 72 hours
Description: as §2

RAW 264.7 cells = test: Phagocytosis assay (Fluorescein-labeled Escherichia coli, flow cytometry); type: cell-based, Mouse; details: 10 micrograms per ml, Fluorescein-labeled E. coli
Description: RAW 264.7 (Mouse leukaemic monocyte macrophage cell line) cells were obtained from ATCC and grown in RPMI 1640 medium containing 10% FBS. […] After the cells were incubated for additional 60 min at 37° C. and allowed to ingest the Fluorescein-labeled Escherichia coli bacteria, cells were fixed with 1% paraformaldehyde. The samples were then analyzed by flow cytometry to determine the amount of phagocytosis as a function of brightness (the greater the phagocytic activity, the more fluorescence in the macrophage population). Data are reported as % positive and the mean fluorescence intensity (MFI) of positively stained cells.

HCMV strain AD169 = test: HCMV plaque formation assay in MRC-5 cells; details: for inhibition of HCMV plaque formation as compared to the virus control experiment: 10 micrograms per ml, 7-10 days
[3] = tested on: hepatitis B virus (HBV) ayw strain; test: HBV assay in HepG2-2.2.15 cells (secreted HBV DNA, TaqMan PCR); type: cell-based; details: HepG2-2.2.15 liver cells, 10 micrograms per ml, six days
HIV-1IIIB = test: HIV-1 antiviral assay in CEM-SS cells (MTS readout); details: positive controls
[4] = Ovalbumin restimulation, 72 hours

| Molecule | reduction of the ceramide-induced apoptosis on human lung cells (Human A549 cells) | IL-4 spleen cells; TH2 response (% of control) (Interleukin-4 (IL-4)) | IL-5 spleen cells; TH2 response (% of control) (Interleukin-5 (IL-5)) | IL-2 spleen cells (% of control) (Interleukin-2 (IL-2)) | IFNγ spleen cells; TH1 response (% of control) (Interferon-γ (IFN-γ)) | induction of the production of IFN-γ (Interferon-γ (IFN-γ)) | TNF-a spleen cells; TH1 response (% of control) [2] | change of the production of TNF-alpha [2] | induction of phagocytosis as compared to the control experiment (RAW 264.7 cells) | inhibition of HCMV plaque formation as compared to the virus control experiment (HCMV strain AD169) | inhibition of HBV replication as compared to the virus control infection [3] | antiviral activity of positive control compounds (HIV-1IIIB) | further results |
| --- | --- | --- | --- | --- | --- | --- | --- | --- | --- | --- | --- | --- | --- |
| Tyr-Gly-Gly-Phe-Leu-Arg-Lys-Tyr-Pro-Lys-OH (YGGFLRKYPK-OH) [peptide 2] | 17.9% | 170.6 % of control | 67.5 % of control | 141.5 % of control | 130.3 % of control | 30.3% | 101.0 % of control | did not significantly change | 54.3% | 6.9% | no effect |  | induction of the production of IL-4 (Interleukin-4 (IL-4); [4]): 70.6%; induction of the migration of human endothelial cells [1]: 11%; change of the production of IL-5 (Interleukin-5 (IL-5); [4]): did not significantly change; induction of the production of IL-2 (Interleukin-2 (IL-2); [4]): 41.5%; inhibition of the tube formation of human endothelial cells (HUVEC): 5% |
| CC(C)(C)NC(=O)[C@@H]1CN(Cc2cccnc2)CCN1C[C@@H](O)C[C@@H](Cc1ccccc1)C(=O)N[C@H]1c2ccccc2C[C@H]1O [indinavir] |  |  |  |  |  |  |  |  |  |  |  | expected levels of antiviral activity |  |
| Cc1cn([C@H]2C[C@H](N=[N+]=[N-])[C@@H](CO)O2)c(=O)[nH]c1=O [AZT] |  |  |  |  |  |  |  |  |  |  |  | expected levels of antiviral activity |  |
| Nc1nc(O)c2ncn(COC(CO)CO)c2n1 [Ganciclovir, reference compound] |  |  |  |  |  |  |  |  |  |  |  |  | antiviral activity of positive control compound (HCMV strain AD169; HCMV AD169, positive control): expected levels of antiviral activity |
| Met-Ala-Pro-Arg-Gly-Phe-Ser-Cys-Leu-Leu-Leu-Leu-Thr-Ser-Glu-Ile-Asp-Leu-Pro-Val-Lys-Arg-Arg-Ala-OH (MAPRGFSCLLLLTSEIDLPVKRRA-OH) [peptide 1] | 10.7% | 75.1 % of control | 63.5 % of control | 50.6 % of control | 122.3 % of control | 22.3% | 104.2 % of control | did not significantly change | 94.3% | 3.2% | 3.9% |  | change of the production of IL-4 (Interleukin-4 (IL-4); [4]): did not significantly change; inhibition of the migration of human endothelial cells [1]: 3%; decrease of the production of IL-5 (Interleukin-5 (IL-5); [4]): 36.5%; decrease of the production of IL-2 (Interleukin-2 (IL-2); [4]): 49.4%; induction of the tube formation of human endothelial cells (HUVEC): 23% |
